According to patent publication US12662465B2, “EGFR inhibitors” (Blueprint Medicines Corporation, priority 2021, dated 2026):
pIC50: −log10 of the molar value. Like-named read-outs stand apart in the source and are kept apart here.

Key:
EGFR L858R = target: T1, EGFR L858R (Homo sapiens, UniProt P00533, L858R); experiment: Biochemical EGFR inhibition assay (Caliper mobility shift), EGFR L858R; settings: read-out: Enz EGFR_L858R IC50
T1 construct: purchased SignalChem E10-122BG

EGFR (d746-750) = target: T2, EGFR (d746-750) (Homo sapiens, UniProt P00533, DEL746-750); experiment: Biochemical EGFR inhibition assay (Caliper mobility shift), EGFR (d746-750); settings: read-out: Enz EGFR_Exon19-del746-750 IC50
T2 construct: purchased SignalChem E10-122JG

[1] = target: intracellular phosphorylation of EGFR (Tyr1068) in PC-9 cells (Ex19Del) (Homo sapiens, UniProt P00533, DEL746-750); experiment: PC-9 pEGFR AlphaLISA assay; assay type: cell-based; settings: 4 hours compound incubation, read-out: Ext pEGFR_PC-9 Ex19Del IC50
[2] = 1.0 mM ATP or ATP Km, room temperature (25° C.)

T2 sequence (P00533 with tags, fused parts or gaps DEL746-750 limits assumed): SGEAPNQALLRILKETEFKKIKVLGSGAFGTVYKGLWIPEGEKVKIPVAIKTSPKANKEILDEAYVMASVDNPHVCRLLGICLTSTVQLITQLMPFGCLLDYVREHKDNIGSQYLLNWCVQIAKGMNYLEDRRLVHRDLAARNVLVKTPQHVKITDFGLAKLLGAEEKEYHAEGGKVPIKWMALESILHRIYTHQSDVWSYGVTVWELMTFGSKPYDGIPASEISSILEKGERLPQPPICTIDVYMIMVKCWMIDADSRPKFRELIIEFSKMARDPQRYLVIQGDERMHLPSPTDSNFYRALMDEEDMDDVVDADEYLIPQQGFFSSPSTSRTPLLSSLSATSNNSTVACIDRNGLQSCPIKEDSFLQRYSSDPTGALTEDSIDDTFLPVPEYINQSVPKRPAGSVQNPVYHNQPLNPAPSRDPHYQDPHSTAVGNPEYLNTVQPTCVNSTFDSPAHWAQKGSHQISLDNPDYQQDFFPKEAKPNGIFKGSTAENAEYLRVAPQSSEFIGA
T1 sequence (P00533 25-1210 L858R): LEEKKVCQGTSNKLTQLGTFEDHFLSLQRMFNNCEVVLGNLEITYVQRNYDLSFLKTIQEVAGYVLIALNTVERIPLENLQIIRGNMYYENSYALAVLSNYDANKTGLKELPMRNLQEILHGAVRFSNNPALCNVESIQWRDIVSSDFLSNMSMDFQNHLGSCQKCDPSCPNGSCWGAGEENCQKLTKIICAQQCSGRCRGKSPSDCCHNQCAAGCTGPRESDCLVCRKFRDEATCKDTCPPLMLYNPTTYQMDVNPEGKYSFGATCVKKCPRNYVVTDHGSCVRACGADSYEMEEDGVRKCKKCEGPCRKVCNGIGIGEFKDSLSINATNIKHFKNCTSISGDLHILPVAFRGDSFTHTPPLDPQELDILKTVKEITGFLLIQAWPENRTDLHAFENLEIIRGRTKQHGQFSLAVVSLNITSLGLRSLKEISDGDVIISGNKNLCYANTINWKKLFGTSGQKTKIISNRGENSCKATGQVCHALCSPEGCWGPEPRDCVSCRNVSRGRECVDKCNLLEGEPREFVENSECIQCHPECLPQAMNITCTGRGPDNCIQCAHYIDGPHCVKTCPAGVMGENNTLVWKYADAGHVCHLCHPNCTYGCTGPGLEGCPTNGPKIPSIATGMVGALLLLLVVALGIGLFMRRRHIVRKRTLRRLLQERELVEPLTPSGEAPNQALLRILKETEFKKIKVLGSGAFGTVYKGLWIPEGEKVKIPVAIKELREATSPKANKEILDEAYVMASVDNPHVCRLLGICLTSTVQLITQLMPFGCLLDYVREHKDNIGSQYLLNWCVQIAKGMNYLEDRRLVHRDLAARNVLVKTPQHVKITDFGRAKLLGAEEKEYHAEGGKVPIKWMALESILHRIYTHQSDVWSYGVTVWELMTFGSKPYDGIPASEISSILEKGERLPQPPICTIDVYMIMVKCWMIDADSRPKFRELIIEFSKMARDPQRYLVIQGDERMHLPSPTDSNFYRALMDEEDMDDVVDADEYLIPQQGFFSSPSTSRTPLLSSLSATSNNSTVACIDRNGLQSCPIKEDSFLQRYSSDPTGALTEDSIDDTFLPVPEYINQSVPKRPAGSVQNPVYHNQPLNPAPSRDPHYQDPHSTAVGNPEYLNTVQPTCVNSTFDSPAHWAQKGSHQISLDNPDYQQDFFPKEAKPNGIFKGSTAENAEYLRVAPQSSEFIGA
Sequence of intracellular phosphorylation of EGFR (Tyr1068) in PC-9 cells (Ex19Del) (P00533 with tags, fused parts or gaps DEL746-750): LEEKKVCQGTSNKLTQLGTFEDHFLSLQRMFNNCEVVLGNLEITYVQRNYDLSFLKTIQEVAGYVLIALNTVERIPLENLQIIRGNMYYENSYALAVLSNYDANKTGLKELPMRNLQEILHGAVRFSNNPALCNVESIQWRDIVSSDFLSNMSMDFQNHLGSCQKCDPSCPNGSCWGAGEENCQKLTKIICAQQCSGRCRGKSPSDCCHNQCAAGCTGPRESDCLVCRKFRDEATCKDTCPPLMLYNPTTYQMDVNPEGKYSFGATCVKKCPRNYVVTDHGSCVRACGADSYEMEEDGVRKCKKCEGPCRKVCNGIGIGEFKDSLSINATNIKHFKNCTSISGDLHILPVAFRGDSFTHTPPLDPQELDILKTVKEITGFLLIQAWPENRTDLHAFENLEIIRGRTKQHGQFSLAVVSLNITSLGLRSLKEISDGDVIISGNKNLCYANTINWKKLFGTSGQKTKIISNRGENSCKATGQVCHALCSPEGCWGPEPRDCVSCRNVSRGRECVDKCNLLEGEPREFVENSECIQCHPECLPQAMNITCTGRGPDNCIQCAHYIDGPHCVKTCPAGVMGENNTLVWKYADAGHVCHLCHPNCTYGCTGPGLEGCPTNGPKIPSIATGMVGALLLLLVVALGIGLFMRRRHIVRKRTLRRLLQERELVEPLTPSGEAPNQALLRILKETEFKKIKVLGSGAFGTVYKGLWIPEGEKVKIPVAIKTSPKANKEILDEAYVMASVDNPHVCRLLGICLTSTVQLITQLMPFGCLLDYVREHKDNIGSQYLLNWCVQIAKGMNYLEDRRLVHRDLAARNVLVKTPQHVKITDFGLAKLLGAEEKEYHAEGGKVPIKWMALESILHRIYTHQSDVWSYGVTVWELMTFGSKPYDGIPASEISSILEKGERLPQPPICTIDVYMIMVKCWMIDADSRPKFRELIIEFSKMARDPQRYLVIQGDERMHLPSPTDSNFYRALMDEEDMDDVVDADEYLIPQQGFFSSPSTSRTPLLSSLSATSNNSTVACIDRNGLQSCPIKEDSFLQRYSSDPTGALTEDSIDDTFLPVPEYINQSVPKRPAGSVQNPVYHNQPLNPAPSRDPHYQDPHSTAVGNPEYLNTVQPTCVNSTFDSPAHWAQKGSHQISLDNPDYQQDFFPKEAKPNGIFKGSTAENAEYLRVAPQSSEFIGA

| Compound | pIC50 (EGFR L858R) | pIC50 (EGFR (d746-750)) | pIC50 [1] | pIC50 (EGFR L858R; [2]) | pIC50 (EGFR (d746-750); [2]) |
| --- | --- | --- | --- | --- | --- |
| C[C@H](CN(C)C)Oc1cc(N2CCOC[C@@H]2CO)cc2ncnc(Nc3ccc4ncccc4c3F)c12 [Example 92, ((S)-4-(5-(((R)-1-(dimethylamino)propan-2-yl)oxy)-4-((5-fluoroquinolin-6-yl)amino)quinazolin-7-yl)morpholin-3-yl)methanol] | 7.30 to 8.00 | > 8.00 | 7.30 to 8.00 | – | – |
| C[C@H](CN(C)C)Oc1nc(N2CC[C@H](C(C)(C)O)C2)cc2ncnc(Nc3ccc4ncccc4c3F)c12 [Example 75, 2—((S)-1-(5-(((R)-1-(dimethylamino)propan-2-yl)oxy)-4-((5-fluoroquinolin-6-yl)amino)pyrido[4,3-d]pyrimidin-7-yl)pyrrolidin-3-yl)propan-2-ol] | 7.30 to 8.00 | > 8.00 | 7.30 to 8.00 | – | – |
| CN1CCC[C@H](Oc2cc(-c3cnn(C)c3)cc3ncnc(Nc4ccc5ncccc5c4F)c23)C1 [Example 35, (S)—N-(5-fluoroquinolin-6-yl)-7-(1-methyl-1H-pyrazol-4-yl)-5-((1-methylpiperidin-3-yl)oxy)quinazolin-4-amine] | > 8.00 | > 8.00 | ≥ 8.00 | – | – |
| C[C@@H](Oc1cc(-c2cnn(C)c2)cc2ncnc(Nc3ccc4ncccc4c3F)c12)[C@@H]1COCCN1C (single isomer, unassigned) [Example 126] | – | – | ≥ 8.00 | > 8.00 | > 8.00 |
| C[C@H](CN(C)C)Oc1cc(N2CCO[C@@H](C(F)F)C2)cc2ncnc(Nc3ccc4ncccc4c3F)c12 (single isomer, unassigned) [Example 99a, 7-((S)-2-(difluoromethyl)morpholino)-5-(((R)-1-(dimethylamino)propan-2-yl)oxy)-N-(5-fluoroquinolin-6-yl) or 7-((R)-2-(difluoromethyl)morpholino)-5-(((R)-1-(dimethylamino)propan-2-yl)oxy)-N-(5-fluoroquinolin-6-yl)quinazolin-4-amine] | – | – | ≥ 8.00 | > 8.00 | > 8.00 |
| C[C@H](Oc1cc(-c2cnn(C)c2)cc2ncnc(Nc3ccc4ncccc4c3F)c12)[C@@H]1CCCN1C (single isomer, unassigned) [Example 147] | – | – | ≥ 8.00 | > 8.00 | > 8.00 |
| C[C@H](CN(C)C)Oc1cc(N2CC(C)(O)C2)cc2ncnc(Nc3ccc4ncccc4c3F)c12 [Example 93, (R)-1-(5-((1-(dimethylamino)propan-2-yl)oxy)-4-((5-fluoroquinolin-6-yl)amino)quinazolin-7-yl)-3-methylazetidin-3-ol] | 7.30 to 8.00 | > 8.00 | 7.30 to 8.00 | – | – |
| C[C@@H](Oc1cc(-c2cnn(C)c2)cc2ncnc(Nc3ccc4ncccc4c3F)c12)[C@@H]1COCCN1 (single isomer, unassigned) [Example 123] | – | – | ≥ 8.00 | > 8.00 | > 8.00 |
| C[C@H](CN(C)C)Oc1cc(N2CCOC3(CC3)C2)cc2ncnc(Nc3ccc4ncccc4c3F)c12 [Example 91, (R)-5-((1-(dimethylamino)propan-2-yl)oxy)-N-(5-fluoroquinolin-6-yl)-7-(4-oxa-7-azaspiro[2.5]octan-7-yl)quinazolin-4-amine] | < 7.30 | 7.30 to 8.00 | < 7.30 | – | – |
| CN1CCC(Oc2cc(-c3cnn(CC(F)F)c3)cc3ncnc(Nc4ccc5ncccc5c4F)c23)CC1 [Example 53, 7-(1-(2,2-difluoroethyl)-1H-pyrazol-4-yl)-N-(5-fluoroquinolin-6-yl)-5-((1-methylpiperidin-4-yl)oxy)quinazolin-4-amine] | > 8.00 | > 8.00 | ≥ 8.00 | – | – |
| CN(C)[C@@H]1CC[C@H]1Oc1cc(-c2cnn(C)c2)cc2ncnc(Nc3ccc4ncccc4c3F)c12 (single isomer, unassigned) [Example 141, 5-((1R,2R)-2-(dimethylamino)cyclobutoxy)-N-(5-fluoroquinolin-6-yl)-7-(1-methyl-1H-pyrazol-4-yl)quinazolin-4-amine or 5-((1S,2S)-2-(dimethylamino)cyclobutoxy)-N-(5-fluoroquinolin-6-yl)-7-(1-methyl-1H-pyrazol-4-yl)quinazolin-4-amine] | – | – | < 7.30 | 7.30 to 8.00 | 7.30 to 8.00 |
| CN(C)CC1(COc2cc(-c3cnn(C)c3)cc3ncnc(Nc4ccc5ncccc5c4F)c23)COC1 [Example 12, 5-((3-((dimethylamino)methyl)oxetan-3-yl)methoxy)-N-(5-fluoroquinolin-6-yl)-7-(1-methyl-1H-pyrazol-4-yl) quinazolin-4-amine] | 7.30 to 8.00 | > 8.00 | < 7.30 | – | – |
| C[C@H](CN(C)C)Oc1cc(N2CCC(C)(O)CC2)cc2ncnc(Nc3ccc4ncccc4c3F)c12 [Example 94, (R)-1-(5-((1-(dimethylamino)propan-2-yl)oxy)-4-((5-fluoroquinolin-6-yl)amino)quinazolin-7-yl)-4-methylpiperidin-4-ol] | 7.30 to 8.00 | > 8.00 | 7.30 to 8.00 | – | – |
| C[C@H](CN(C)C)Oc1cc(N2CCOCC2)cc2ncnc(Nc3ccc4ncccc4c3F)c12 [Example 65, (R)-5-((1-(dimethylamino)propan-2-yl)oxy)-N-(5-fluoroquinolin-6-yl)-7-morpholinoquinazolin-4-amine] | 7.30 to 8.00 | > 8.00 | ≥ 8.00 | – | – |

The next lines start with the values.

| pIC50 (EGFR L858R) | pIC50 (EGFR (d746-750)) | pIC50 [1] | pIC50 (EGFR L858R; [2]) | pIC50 (EGFR (d746-750); [2]) | Compound |
| --- | --- | --- | --- | --- | --- |
| > 8.00 | > 8.00 | ≥ 8.00 | – | – | C[C@H](CN(C)C)Oc1cc(-c2cnn(C)c2)cc2ncnc(Nc3cc(F)c4ncccc4c3F)c12 [Example 10, (R)—N-(5,8-difluoroquinolin-6-yl)-5-((1-(dimethylamino)propan-2-yl)oxy)-7-(1-methyl-1H-pyrazol-4-yl)quinazolin-4-amine] |
| 7.30 to 8.00 | > 8.00 | 7.30 to 8.00 | – | – | Cc1ccc2c(F)c(Nc3ncnc4cc(-c5cnn(C)c5)cc(O[C@H](C)CN(C)C)c34)ccc2n1 [Example 107, (R)-5-((1-(dimethylamino)propan-2-yl)oxy)-N-(5-fluoro-2-methylquinolin-6-yl)-7-(1-methyl-1H-pyrazol-4-yl)quinazolin-4-amine] |
| – | – | < 7.30 | < 7.30 | 7.30 to 8.00 | C[C@H](CN(C)C)Oc1cc(-c2cnn(C)c2)cc2ncnc(Nc3ccc4ncccc4c3)c12 (single isomer, unassigned) [Example 43, (R)-5-((1-(dimethylamino)propan-2-yl)oxy)-7-(1-methyl-1H-pyrazol-4-yl)-N-(quinolin-6-yl)quinazolin-4-amine or (S)-5-((1-(dimethylamino)propan-2-yl)oxy)-7-(1-methyl-1H-pyrazol-4-yl)-N-(quinolin-6-yl)quinazolin-4-amine] |
| 7.30 to 8.00 | > 8.00 | 7.30 to 8.00 | – | – | C[C@H](CN(C)C)Oc1cc(-c2cnn(C)c2)cc2ncnc(Nc3ccc4nccnc4c3)c12 [Example 103, (R)-5-((1-(dimethylamino)propan-2-yl)oxy)-7-(1-methyl-1H-pyrazol-4-yl)-N-(quinoxalin-6-yl)quinazolin-4-amine] |
| – | – | ≥ 8.00 | > 8.00 | > 8.00 | C[C@H](Oc1cc(-c2cnn(C)c2)cc2ncnc(Nc3ccc4ncccc4c3F)c12)[C@@H](C)O (single isomer, unassigned) [Example 132, (2R,3S)-3-((4-((5-fluoroquinolin-6-yl)amino)-7-(1-methyl-1H-pyrazol-4-yl)quinazolin-5-yl)oxy)butan-2-ol or (2S,3R)-3-((4-((5-fluoroquinolin-6-yl)amino)-7-(1-methyl-1H-pyrazol-4-yl)quinazolin-5-yl)oxy)butan-2-ol] |
| > 8.00 | > 8.00 | ≥ 8.00 | – | – | C[C@H](CN(C)C)Oc1cc(-c2cnn(C)c2)cc2ncnc(Nc3ccc4ncccc4c3F)c12 [Example 6, (R)-5-((1-(dimethylamino)propan-2-yl)oxy)-N-(5-fluoroquinolin-6-yl)-7-(1-methyl-1H-pyrazol-4-yl)quinazolin-4-amine] |
| > 8.00 | > 8.00 | ≥ 8.00 | – | – | C[C@@H](Oc1cc(-c2cnn(C)c2)cc2ncnc(Nc3ccc4ncccc4c3F)c12)C(CO)CCl (stereo partly drawn) [Example 113, (3R)-2-(chloromethyl)-3-((4-((5-fluoroquinolin-6-yl)amino)-7-(1-methyl-1H-pyrazol-4-yl)quinazolin-5-yl)oxy)butan-1-ol] |
| 7.30 to 8.00 | > 8.00 | 7.30 to 8.00 | – | – | CN(C)C1(COc2cc(-c3cnn(C)c3)cc3ncnc(Nc4ccc5ncccc5c4F)c23)COC1 [Example 21, 5-((3-(dimethylamino)oxetan-3-yl)methoxy)-N-(5-fluoroquinolin-6-yl)-7-(1-methyl-1H-pyrazol-4-yl)quinazolin-4-amine] |
| > 8.00 | > 8.00 | ≥ 8.00 | – | – | C[C@H](CN(C)C)Oc1cc(-c2cnn(C)c2)cc2ncnc(Nc3ccc4ncc(F)cc4c3)c12 [Example 7, (R)-5-((1-(dimethylamino)propan-2-yl)oxy)-N-(3-fluoroquinolin-6-yl)-7-(1-methyl-1H-pyrazol-4-yl)quinazolin-4-amine] |
| < 7.30 | 7.30 to 8.00 | < 7.30 | – | – | C[C@H](CN(C)C)Oc1cc(-c2cnn(C)c2)cc2ncnc(Nc3ccc4nc(O)ccc4c3F)c12 [Example 130, (R)-6-((5-((1-(dimethylamino)propan-2-yl)oxy)-7-(1-methyl-1H-pyrazol-4-yl)quinazolin-4-yl)amino)-5-fluoroquinolin-2-ol] |
| – | – | 7.30 to 8.00 | > 8.00 | > 8.00 | C[C@@H](Oc1cc(-c2cnn(C)c2)cc2ncnc(Nc3ccc4ncccc4c3F)c12)[C@@H]1COCCN1 (single isomer, unassigned) [Example 124] |
